Legend:
Type in all cases: in vivo, human
[1] = tested on: adult patients with Gaucher disease Type 3; assay: GD3 clinical study: interstitial lung disease by high-resolution CT; conditions: after 26 weeks; GD3, 15 mg/day oral + imiglucerase
Description: (§1) During the study patients were evaluated for safety and tolerability, CSF and plasma biomarkers (glucosylceramide, GL-1; glucosylsphingosine, lyso-GL1), pharmacokinetics, markers for systemic disease (spleen and liver volume measured by magnetic resonance imaging (MRI), platelet count, hemoglobin levels), indicia of interstitial lung disease (high resolution pulmonary computed tomography (CT)), and horizontal saccadic eye movement.
Severity of interstitial lung disease was characterized by the percent of lung volume affect by ILD as measured by high-resolution CT in four lung regions (aortic arch, carina, lower zone L3, lower zone L4). Patients were rated as having severe ILD (51-100% of lung volume affected), moderate ILD (26-50% of lung volume affected), mild ILD (1-25% of lung volume affected) or normal (0% of lung volume showing ILD).

[2] = tested on: adult patients with Gaucher disease Type 3; assay: GD3 clinical study: markers for systemic disease (spleen volume, platelet count, hemoglobin); conditions: GD3, 15 mg/day oral + imiglucerase
Description: as §1
Individual patient data for platelet counts are shown in the table below (shown as 10^9 platelets/L): […]

[3] = GD3 clinical study: safety and tolerability; conditions: GD3, 15 mg/day oral + imiglucerase
Description: as §1

[4] = tested on: adult male Fabry patients; assay: Fabry clinical study: SF-36 bodily pain and abdominal pain assessment; conditions: Fabry males; for patients with decreased severity of abdominal pain / patients with improved overall bodily pain scores (SF-36) / patients with reduced number of days with gastrointestinal pain: 15 mg/day oral
Description: Each sample was scored independently by 3 pathologists for the presence of GL-3 inclusions on a four-point scale, and rated as 0 (no/trace), 1 (mild), 2 (moderate), or 3 (severe) according to Eng et al., N. Engl. J. Med. 345:9-16 (2001). A single score per patient per time point was derived by taking the score rated by the majority of the three pathologists. If a majority score could not be derived, then the median score was used (resulting in some fractional scores). Plasma samples were also analyzed for GL-3, lyso-GL-3, GL-1 and GM3 at baseline and weeks 12, 26, 52 and 156. Pain scores and abdominal symptoms were analyzed at baseline and weeks 12, 26, 52, 104 and 156 using the SF-36 scoring protocol.
Patients were assessed using the Short Form-36 (SF-36) questionnaire on numerous visits from baseline to week 156. This is a 36-item questionnaire used to measure 8 various aspects of health (vitality, physical functioning, bodily pain, general health perceptions, physical role functioning, emotional role functioning, social role functioning and mental health). The score for each of the eight aspects ranges from 0 (maximum disability) to 100 (no disability), and thus, higher scores indicate good health condition. In addition, gastrointestinal symptoms, including abdominal pain, abdominal distention, and bowl movements, were assessed using a modified version of the inflammatory bowel severity scoring system. Particular questions asked as part of these assessments included: (1) whether the patient suffered abdominal pain within the last ten days, (2) what was the severity of abdominal pain suffered in the last ten days using a 0 (no pain) to 100 (very severe pain) scale, and (3) on how many days within the last ten days did the patient have abdominal pain.

[5] = tested on: adult patients with Gaucher disease Type 3; assay: GD3 clinical study: horizontal and vertical saccadic eye movements; conditions: GD3, 15 mg/day oral + imiglucerase
Description: as §1
Quantification of horizontal and vertical saccadic eye movements (HSEM and VSEM, respectively) was performed in all 5 patients. In the five patients, mean peak velocity (PV) of horizontal rightward 150 saccades was 50.8°/s (+/−8.1°/s) at baseline and […] (+/−12.6°/s) at Week 26: and the mean PV of horizontal leftward 150 saccades was 44.7°/s (+/−17.9°/s) at baseline and 32.3°/s (+/−15.9°/s) at Week 26. […]
At 52 weeks, quantification of horizontal and vertical saccadic eye movements was performed in all six patients in a similar manner as described in section (A). However, it was determined that the methodology used to account for noise (e.g., caused by blinking or head movements) may have introduced bias into the results. The method of accounting for noise was therefore modified, and a set of control criteria were developed to assess validity of the datasets obtained by the eye movement reader.

[6] = tested on: plasma GL-1, GL-3, and GM3; assay: Phase 1 Study 2: pharmacodynamics
Description: The study enrolled and randomized 36 healthy adults (19 men and 17 women) (n=9 each to group).
Pharmacodynamic endpoints (plasma GL-1, GL-3, and GM3 concentrations) were assessed on Days 1-5, 8, 11, 13, and 14, at 0 hours […]; and on Day 15, at 24 hours after the Day 14 dose.

[7] = tested on: adult patients with Gaucher disease Type 3; assay: GD3 clinical study: Scale for Assessment and Rating of Ataxia (SARA)
Description: The degree of ataxia at baseline and throughout the study was evaluated by the Scale for Assessment and Rating of Ataxia (SARA; Schmitz-Hubsch et al. [2006]), which assesses eight distinct attributes of cerebellar ataxia on a scale of 0-40. The eight attributes are gait, stance, sitting, speech disturbance, finger chase, nose-finger test, fast alternate hand movement, and heel-shin slide. SARA ataxia scoring results for all six patients is presented in the chart below: […]

[8] = tested on: glucosylceramide (GL-1), glucosylsphingosine (lyso-GL1); assay: GD3 clinical study: CSF and plasma biomarkers GL-1 and lyso-GL1; conditions: GD3, 15 mg/day oral + imiglucerase
Description: as §1
At baseline, the mean (±SD) GL-1 concentration in CSF was 7.1±2.8 ng/mL (range 4.4-11.1 ng/mL), while the mean (±SD) lyso-GL-1 concentration in CSF was 39.3±22.9 pg/mL (range 20.1-67.6 pg/mL). For comparison, the healthy GL-1 concentration in CSF is 4.5-5.9 ng/mL, and the healthy level of lyso-GL-1 in CSF is less than 5.0 pg/mL.

For CC(C)(NC(=O)O[C@@H]1CN2CCC1CC2)c1csc(-c2ccc(F)cc2)n1 [Compound 2, (S)-quinuclidin-3-yl (2-(2-(4-fluorophenyl)thiazol-4-yl)propan-2-yl)carbamate], the “patients showing regression of ILD” value [1] was 4 out of 5, the systemic deterioration ([2]; 26 weeks, all patients) was “absence of systemic deterioration” and the “changes in hemoglobin levels” value ([2]; 26 weeks) was “no clinically meaningful changes”. The “patients with reductions in splenic volume of 10% or more” value ([2]; 26 weeks) was “Two”, the “changes in hemoglobin levels” value ([2]; Week 52) was “no clinically meaningful changes” and the “patients with spleen volume reductions” value ([2]; Week 52) was “two”. For the same compound, the treatment-emergent adverse events ([3]; 26 weeks, all 5 patients) was “no serious or lasting treatment-emergent adverse events”, the “total treatment-emergent adverse events reported” value ([3]; 52 weeks, six patients) was 30 and the “severity of treatment-emergent adverse events” value ([3]; 52 weeks, six patients, none considered related to treatment) was “mild or moderate in severity”. The “abdominal pain and discomfort” value ([4]; 15 mg/day) was “consistently reduces abdominal pain and discomfort”, the “patients with decreased severity of abdominal pain” value ([4]; week 26, patients with gastrointestinal pain at baseline) was “four out of five” and the “patients with improved overall bodily pain scores (SF-36)” value ([4]; week 26) was “Seven of nine”. The “patients with reduced number of days with gastrointestinal pain” value ([4]; week 26) was “five of five”, the “patients with decreased severity of abdominal pain” value ([4]; week 156, patients with gastrointestinal pain at baseline) was “four out of four” and the “patients with improved overall bodily pain scores (SF-36)” value ([4]; week 156) was “three of six”. For the same compound, the “patients with reduced number of days with gastrointestinal pain” value ([4]; week 156) was “three of four”, the VSEM measurements ([5]; between baseline and week 26) was “stable” and the “changes in HSEM” value ([5]; over the 26-week treatment period) was “no clinically meaningful changes”. For the same compound, the “day on which maximal sustained GM3 decreases start” value ([6]; all Compound 2 dose groups) was 13 days, the “Plasma GL-3” value ([6]; all Compound 2 dose groups, low baseline values relative to LLOQ) was “decreased with time” and the “plasma GL-1 and GM3 levels” value ([6]; healthy adults, 5, 10, 20 mg once daily 14 days) was “decreased from baseline time- and dose-dependently”. The “patients showing improvements in ataxia” value ([7]; 52 weeks, GD3, 15 mg/day oral + imiglucerase) was 5 of 6, the “SARA stance score, Patient 4” value ([7]; Week 52 (baseline 1), knee pain and toe injury at exam) was 5 and the “patients exhibiting an improvement in ataxia, excluding Patient 5” value ([7]; Week 52, GD3, 15 mg/day oral + imiglucerase) was 4 out of 5. The “plasma and CSF biomarkers for GD-3” value ([8]; 26 weeks) was “significant improvements” and the “plasma and CSF biomarkers for GD-3” value ([8]; 52 weeks) was “sustained significant improvements”.
